# According to the NIST ThermoML archive (doi:10.1021/je800357c):
# ± gives the expanded uncertainty stated by the source.
# Assay: mn = molality of the nth substance listed, in mol/kg
# Conditions: 101 kPa, Liquid
smiles,measurement,setting,value
"O=C(O)/C=C\C(=O)O [cis-1,4-butenedioic acid] + O",mass density,"288.15 K, m1 = 0.09831",1003.24 ± 0.43 kg/m3
same,mass density,"288.15 K, m1 = 0.4902",1018.5 ± 0.44 kg/m3
same,mass density,"288.15 K, m1 = 0.979",1035.99 ± 0.45 kg/m3
same,mass density,"293.15 K, m1 = 0.09831",1002.29 ± 0.43 kg/m3
same,mass density,"293.15 K, m1 = 0.4902",1017.26 ± 0.44 kg/m3
same,mass density,"293.15 K, m1 = 0.979",1034.47 ± 0.45 kg/m3
same,mass density,"298.15 K, m1 = 0.09831",1001.04 ± 0.43 kg/m3
same,mass density,"298.15 K, m1 = 0.4902",1015.79 ± 0.44 kg/m3
same,mass density,"298.15 K, m1 = 0.979",1032.74 ± 0.45 kg/m3
same,mass density,"303.15 K, m1 = 0.09831",999.59 ± 0.43 kg/m3
same,mass density,"303.15 K, m1 = 0.4902",1014.1 ± 0.44 kg/m3
same,mass density,"303.15 K, m1 = 0.979",1030.81 ± 0.45 kg/m3
same,mass density,"308.15 K, m1 = 0.09831",997.91 ± 0.43 kg/m3
same,mass density,"308.15 K, m1 = 0.4902",1012.25 ± 0.44 kg/m3
same,mass density,"308.15 K, m1 = 0.979",1028.74 ± 0.45 kg/m3
same,mass density,"313.15 K, m1 = 0.09831",996.07 ± 0.43 kg/m3
same,mass density,"313.15 K, m1 = 0.4902",1010.18 ± 0.44 kg/m3
same,mass density,"313.15 K, m1 = 0.979",1026.46 ± 0.45 kg/m3
same,mass density,"318.15 K, m1 = 0.09831",994.03 ± 0.43 kg/m3
same,mass density,"318.15 K, m1 = 0.4902",1007.98 ± 0.44 kg/m3
same,mass density,"318.15 K, m1 = 0.979",1024.06 ± 0.44 kg/m3
same,mass density,"323.15 K, m1 = 0.09831",991.81 ± 0.44 kg/m3
same,mass density,"323.15 K, m1 = 0.4902",1005.58 ± 0.43 kg/m3
same,mass density,"323.15 K, m1 = 0.979",1021.47 ± 0.44 kg/m3
same,mass density,"328.15 K, m1 = 0.09831",989.41 ± 0.44 kg/m3
same,mass density,"328.15 K, m1 = 0.4902",1003.01 ± 0.43 kg/m3
same,mass density,"328.15 K, m1 = 0.979",1018.75 ± 0.44 kg/m3
same,mass density,"333.15 K, m1 = 0.09831",986.88 ± 0.44 kg/m3
same,mass density,"333.15 K, m1 = 0.4902",1000.36 ± 0.43 kg/m3
same,mass density,"333.15 K, m1 = 0.979",1015.92 ± 0.44 kg/m3
